# US6949654B2, “N-alkyl-N-phenylhydroxylamine compounds containing metal chelating groups, their preparation and their therapeutic uses” (Sam-Sung Electronics Co., Ltd., priority 2001, dated 2005)
# Key:
# [1] = tested on: soybean phosphatidylcholine liposome; assay: Inhibition of lipid peroxidation of a multilayer liposome (TBA method); assay type: biochemical; conditions: lipid peroxidation of liposome started with FeCl2, 37° C. 15 minutes, absorbance at 532 nm; read-out: Inhibitor Concentration (IC50)
# Procedure: The compounds of the present invention were tested for antioxidant effect in terms of the repression of the radical chain reaction of a multilayer liposome.
# The liposome was prepared as followings: 30 mg of commercially available soybean phosphatidylcholine (PC, Sigma Chemical Co., U.S.A.) was dissolved in 1 mL of ethanol, and 200 μL of the ethanol/PC solution was added to 10 mL of 10 mM Tris buffer including 50 mM NaCl (pH 7.0) with stirring.
# The ability of a compound to inhibit oxidation of the liposome was evaluated as followings: To 400 μL of the liposomes were added the test compound (in buffer or ethanol) and histidine-FeCl3 (167:33 μM final). Oxidation was initiated by the addition of FeCl2 (33 μM final prepared in nitrogen purged water). The mixtures was shaken at 37° C. for 15 minutes. Thereafter, tubes were treated with 1 mL of 0.67% thiobabituric acid (TBA):10% trichloroacetic acid (2:1, v/v) in 0.25 N HCl solution, containing 1.5% (v/v) t-butylhydroxytoluene (BHT) to terminate oxidation. The aliquots were heated to 100° C. for 20 minutes. After ice cooling, 1 mL of chloroform was added to 1 mL supernatant from tubes and tubes were centrifuged. The absorbances of the resulting supernatant were measured at 532 nm (see: Table 1 below).
# [2] = Acute toxicity LD50 in rats; conditions: rat, in vivo
# [3] = tested on: ischemic neuronal degeneration; assay: Protection of cell damage by ischemia (in vivo); parameters: species or system Mongolian gerbils (Meriones unguiculatus); conditions: 60 mg/kg P.O. 30 minutes after ischemic injury (post-treated), 5 min carotid occlusion, 4 days reperfusion, hippocampus
# Procedure: Male Mongolian gerbils (Meriones unguiculatus) weighing 80-88 g were used in the present study. Each animal was medicated P.O. with vehicle, Ebselen or various test compounds (60 mg/kg in 10% DMSO), after 30 minutes ischemic injury, respectively. 20 animals were allotted into every group. The animals were placed under general anesthesia with a mixture of 2.5% isoflurane in 33% oxygen and 67% nitrous oxide. A midline ventral incision was made in the neck. Both common carotid arteries were isolated, freed of nerve fibers, and occluded using nontraumatic aneurysm clips. Complete interruption of blood flow was confirmed by observing the central artery in eyeballs using ophthalmoscope. After five minutes of occlusion, the aneurysm clips were removed from both common carotid arteries. Restoration of blood flow (reperfusion) was observed directly under the microscope. Sham-operated controls were subjected to the same surgical procedures except that common carotid arteries were not occluded. Body temperature was monitored and maintained at 37° C.±0.5° C. during surgery and during the immediate postoperative period until the animals recovered fully from anesthesia. […]
# Images of staining in the hippocampus of each animal were captured with an Applescanner. […] All data obtained from the quantitative data were analyzed using one-way ANOVA to determine statistical significance. […]
# rats = conditions: oral administration; cited from earlier work
# [4] = even in the presence of an excess of glutathione (GSH); cited from earlier work
# mice = conditions: oral administration; cited from earlier work
Compound,IC50 [1] [µM],protective effect against ischemic neuronal degeneration [3] [%],also measured
"CC(C)(C)N(O)c1ccc(C(=O)Nc2nccs2)cc1 [Example 1, 4-[N-(tert-butyl)-N-hydroxyamino]-N-thiazol-2-yl-benzamide]",1.44,81,"LD50 ([2]; ip, intraperitoneal administration in rats): ≥ 750 mg/kg; LD50 ([2]; oral administration in rats): ≥ 7000 mg/kg"
"CC(C)(C)N(O)c1ccc(C(=O)Nc2ccccn2)cc1 [Example 2, 4-[N-(tert-butyl)-N-hydroxyamino]-N-pyridin-2-yl-benzamide]",4.3,,
"Cc1c(C)c2c(c(C)c1O)CCC(C)(C(=O)O)O2 (stereo not drawn) [Trolox, reference compound]",10.2,,
O=c1c2ccccc2[se]n1-c1ccccc1 [Ebselen],,59,"LD50 (rats): ≥ 6,810 mg/kg; solubility in water [4]: very little soluble in water; LD50 (mice): ≥ 6,810 mg/kg"
"CC(C)(C)N(O)c1ccc(C(=O)Nc2ccc(O)c3ncccc23)cc1 [Example 4, 4-[N-(tert-butyl)-N-hydroxyamino]-N-(8-hydroxyquinolin-5-yl)-benzamide]",61.9,,
4-[N-(tert-butyl)-N-hydroxyamino]-N-pyridin-2-yl-methyl-benzamide [Example 3],11.1,,
